Measurements published in article PMC10987521, “An all-in-one tetrazine reagent for cysteine-selective labeling and bioorthogonal activable prodrug construction” (Nature Communications, 2024).

Key:
B16F10 cells [1] = assay: Cytotoxicity (CCK8, 48 h) of drugs, PDCs, activable-Drugs and TCO, B16F10; format: cell-based, Mouse; details: Mus musculus, B16-F10; B16F10, 48 h, CCK8, n = 3; activable-Dox: RGD-Dox 2 h, then 200 μM TCO, 48 h in total
U87 cells = assay: Cytotoxicity (CCK8, 48 h) of drugs, PDCs, activable-Drugs and TCO, U87; format: cell-based, Human; details: Homo sapiens, U-87 MG; U87, 48 h, CCK8, n = 3; activable-Dox: RGD-Dox 2 h, then 200 μM TCO, 48 h in total
SKOV3 cells = assay: Cytotoxicity (CCK8, 48 h) of drugs, PDCs, activable-Drugs and TCO, SKOV3; format: cell-based, Human; details: Homo sapiens, SK-OV-3; SKOV3, 48 h, CCK8, n = 3; activable-Dox: RGD-Dox 2 h, then 200 μM TCO, 48 h in total
LX2 cells = assay: Cytotoxicity (CCK8, 48 h) of drugs, PDCs, activable-Drugs and TCO, LX2; format: cell-based, Human; details: Homo sapiens, LX-2; LX2 (αvβ3-negative), 48 h, CCK8, n = 3; activable-Dox: RGD-Dox 2 h, then 200 μM TCO
B16F10 cells [2] = assay: Cell uptake by fluorescence imaging, B16F10; format: cell-based, Mouse; details: B16F10 and LX2 cells, 10 μM, 2 h
Experimental: (§1) B16F10 cells were cultured for 48 h. […]
(§2) 12.1 Calculation of the fluorescence coefficient (F c)
(§3) The Fc was the radio calculated
(§4) 12.2 Uptake calculation of the B16F10 cells […]
(§5) deviation were analyzed using Origin Pro 2015.
(§6) B16F10 cells, characterized by α vβ3
(§7) Following the incubation period, the
Subsequently, the cells were trypsinized and underwent three PBS rinses.
12 .4 Cell uptake analysis by fluorescence imaging

B16F10 cells [3] = assay: Comparison of cell uptake between RGD-Dox and Dox using flow cytometry; format: cell-based, Mouse
Experimental: as §1, §2, §3, §4, §5, §6, §7
Subsequently, the cells were trypsinized and underwent three PBS rinses. […]

B16F10 melanoma tumor = assay: In vivo anticancer efficacy, subcutaneous B16F10 melanoma tumor model; parameters: species or system BALB/c nude mice
Experimental: Tumor-bearing mice were established by subcutaneously injecting a suspension of 5 × 10^5 B16F10 cells per mouse into the front flank of each nude mouse. When tumor volume reached 50−70 mm^3, the animals were randomly divided into five groups (n = 5). The mice were administered different compounds suspended in PBS via the tail vein every 3 days for a total of four times.
(§8) The mice underwent four treatment courses on day 0, day 3, day 6, and day 9. Tumor size and body weight were measured every day. Tumor volume was calculated via the following formula: V = 1/2 × (minor axis) × (major axis)[2].
(§9) After 12 days, the mice were sacrificed and dissected to obtain tumor tissues and main organs, including heart, liver, spleen, lung, and kidney. Subsequently, all tissues were fixed in a 4% paraformaldehyde solution, routinely paraffin-embedded and sectioned, and then stained with hematoxylin and eosin, as well as using TdT-mediated dUTP nick-end labeling (TUNEL) for subsequent pathological analysis. TUNEL-positive cells appeared fluorescent green, representing the apoptosis of tumor cells (nuclei were fluorescent blue, stained with DAPI).
13. In vivo anticancer efficacy […]
13.2 Calculation of the tumor growth inhibition values (TGI)
Tumor growth inhibition values (TGI) were calculated using the following formula: TGI (%) = (1 − RTVtreatment/
RTVcontrol)*100. RTV refers to relative tumor volume, representing the ratio of the volume at the end of treatment to the
volume at the beginning of treatment. […]

[4] = Body weight and organ histology in the B16F10 tumor model; format: in vivo, BALB/c nude mice
Experimental: as §8, §9

[5] = test system: B16F10, U87, SKOV3 and LX2 cells; assay: Cytotoxicity (CCK8, 48 h), figures stated across several cell lines; format: cell-based; details: read-out: IC50 values against all four cell lines
[6] = Labeling reaction kinetics between tetrazine 1 and Cys; format: physicochemical; details: 25 °C, PB (30% MeCN, 20 mM, pH 8.0), equal concentrations, UV-Vis 300 nm
Experimental: The second-order rate constant for the labeling reactions between tetrazine 1 and Cys was determined at 25 °C in PB (30% MeCN, 20 mM, pH 8.0) under second-order conditions using a 6000+ (Quawell) UV-Vis spectrophotometer. The concentrations of cysteine and tetrazine were identical. The specific difference in absorption wavelength (300 nm) between 1 and Cys-1 was measured over time. The second-order rate constant k2 was calculated from the slope of a plot of (1/c – 1/c0) versus time.
5. Competitive labeling reaction with other nucleophilic amino acids
For the competitive labeling experiment, 10 equiv. (2 mM) of N-Fmoc-Lys, N-Fmoc-Arg, Ser, Tyr, and 1.3 equiv. […] The resulting solution was maintained at 25 °C and monitored by LC –MS. […]
Each voTz analogue (1.1 equiv.) was added to a 0.25 mL vial containing solvent. […] The chromatogram peak areas of all relevant Cys -containing species were integrated, and the yiel d was determined using the following equation: Yield (%) = Iproduct/(Istarting + Iproduct + Ioxidation + Iside product) × 100, where Istarting, Iproduct, Ioxidation, and Iside product respectively represent the average ion counts of remaining starting material, product, oxidized starting material and any side product, if present 2. […]
DLS analyses and particle zeta potential values were determined using a Nano ZS ZEN 3690 instrument (Malvern […]

Row | SMILES | IC50 (B16F10 cells [1]) [µM] | IC50 (U87 cells) [µM] | IC50 (SKOV3 cells) [µM] | IC50 (LX2 cells) [µM] | cellular uptake of free drug (imaging) (B16F10 cells [2]) | Normalized uptake (B16F10 cells [3]; normalized to Dox = 1, Data 1) | Normalized uptake (B16F10 cells [3]; normalized to Dox = 1, Data 2) | Normalized uptake (B16F10 cells [3]; normalized to Dox = 1, Data 3) | tumor growth inhibition values (TGI %) (B16F10 melanoma tumor; Data 5) [%] | tumor growth inhibition value (TGI) (B16F10 melanoma tumor; after four i.v. courses (days 0, 3, 6, 9), 3.67 μmol·kg^−1, n = 5, TGI = (1 − RTVtreatment/RTVcontrol)*100) [%] | tumor growth / inhibition in words (B16F10 melanoma tumor; four i.v. courses, 3.67 μmol·kg^−1 (TCO-P4 36.7 μmol·kg^−1), n = 5) | histology of heart, liver, spleen, lung, kidney ([4]; after 12 days) | body weight in words ([4]; four i.v. courses, 3.67 μmol·kg^−1, compared with PBS group) | IC50 [5] [µM] | second-order rate constant of the labeling reaction between 1 and Cys [6] [M⁻¹ s⁻¹]
1 | COc1cccc2c1C(=O)c1c(O)c3c(c(O)c1C2=O)C[C@@](O)(C(=O)CO)C[C@@H]3O[C@H]1C[C@H](N)[C@H](O)[C@H](C)O1 [Dox, doxorubicin] | 2.05 | 3.26 | 4.45 | 3.37 | obvious uptake through nonspecific diffusion and internalization | 1 | 1 | 1 | 46.63 | 59.4 | slightly slowed the tumor growth | typical inflammatory injury | serious loss of body weight | 2.05 to 4.45 | –
2 | C=Cc1nnc(-c2ccccc2)nn1 [compound 1, phenyl vinyltetrazine] | – | – | – | – | – | – | – | – | – | – | – | – | – | – | 13 ± 0.8
